The values below come from PubChem BioAssay (NCI).

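Five concentrations, 48 hours, 96-well plates. Abbreviation: GI50, concentration required for 50% inhibition of growth. TGI denotes the concentration required for complete inhibition of growth.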 Bounds are passed on as bounds.

Among the test systems are HOP-92 NSCLC; CAKI-1 renal; SF-539 CNS; UO-31 renal; OVCAR-8 ovarian; NCI-H226 lung; SF-268 CNS; HCT-116 colon; LOX IMVI melanoma; OVCAR-4 ovarian.
Holding throughout (assay): NCI tumour cell line growth inhibition, 48 h

`COc1ccc2c(c1)C(=O)c1c-2n(CCCN=[N+]=[N-])c(=O)c2cc(OC)c(OC)cc12`: the GI50 in the assay on HOP-92 NSCLC was 9.13 µM; in the assay on CAKI-1 renal it was 3.82 µM; in the assay with SF-539 CNS, 56.5 µM; in the assay with UO-31 renal, 44.3 µM; in the assay on OVCAR-8 ovarian, over 100 µM; with NCI-H226 lung it was over 100 µM. The GI50 in the assay with SF-268 CNS was 79.4 µM; in the assay on HCT-116 colon it was 27.8 µM; in the assay with LOX IMVI melanoma, 25.1 µM; in the assay on OVCAR-4 ovarian it was over 100 µM. Besides, the TGI in the assay on HOP-92 NSCLC is 44.6 µM; in the assay with CAKI-1 renal, 24.6 µM; with SF-539 CNS it was over 100 µM; in the assay with UO-31 renal, over 100 µM; in the assay on OVCAR-8 ovarian it was over 100 µM; in the assay on NCI-H226 lung, over 100 µM. Besides, the TGI in the assay on SF-268 CNS, in the assay with HCT-116 colon, in the assay with LOX IMVI melanoma and with OVCAR-4 ovarian was over 100 µM throughout.
Turning to `Cc1cc2c(ccc3c(C)cc(=O)oc32)o1`, the TGI in the assay with HOP-92 NSCLC, in the assay with CAKI-1 renal, with SF-539 CNS, with UO-31 renal, in the assay with OVCAR-8 ovarian and with NCI-H226 lung was over 100 µM throughout. Besides, the TGI in the assay on SF-268 CNS, with HCT-116 colon, in the assay on LOX IMVI melanoma and in the assay on OVCAR-4 ovarian was over 100 µM throughout.
As for `CCCC(=O)NC1=C(Cl)C(=O)c2ccccc2C1=O`, the TGI with HOP-92 NSCLC came out at 3.22 µM; in the assay with CAKI-1 renal, 10.1 µM; in the assay on SF-539 CNS, 7.33 µM; in the assay with UO-31 renal it was 8.99 µM; in the assay with OVCAR-8 ovarian it was 34.8 µM; with NCI-H226 lung, 29.9 µM. In addition, the TGI in the assay on SF-268 CNS was found to be 30.2 µM; with HCT-116 colon, 4.52 µM; in the assay on LOX IMVI melanoma, 6.27 µM; with OVCAR-4 ovarian, 17.1 µM.
For `S=C(Nc1ccc(Br)cc1)Nc1ccc(Br)cc1`, the GI50 was 2.72 µM in the assay with HOP-92 NSCLC; 4 µM in the assay on CAKI-1 renal; over 100 µM in the assay on SF-539 CNS; 12.7 µM in the assay on UO-31 renal; 18.2 µM in the assay with OVCAR-8 ovarian; over 100 µM in the assay on NCI-H226 lung. Moreover, the GI50 in the assay on SF-268 CNS was 67.8 µM; with HCT-116 colon it was 4.21 µM; with LOX IMVI melanoma it was 5.29 µM; with OVCAR-4 ovarian, 7.51 µM. The TGI with HOP-92 NSCLC is 9.13 µM; in the assay with CAKI-1 renal it was over 100 µM; in the assay on SF-539 CNS it was over 100 µM; with UO-31 renal, over 100 µM; in the assay on OVCAR-8 ovarian, over 100 µM; with NCI-H226 lung it was over 100 µM. The TGI in the assay with SF-268 CNS, in the assay on HCT-116 colon, in the assay with LOX IMVI melanoma and in the assay with OVCAR-4 ovarian was over 100 µM in each case.
Take `COC(=O)CCc1c[nH]c2ccc(N(CCCl)CCCl)cc12`: the GI50 is 2.24 µM with HOP-92 NSCLC; 0.375 µM with CAKI-1 renal; 0.486 µM in the assay on SF-539 CNS; 4.81 µM with UO-31 renal; 3.05 µM in the assay on OVCAR-8 ovarian; 1.53 µM with NCI-H226 lung. The GI50 with SF-268 CNS is 1.25 µM; in the assay on HCT-116 colon it was 2.18 µM; in the assay with LOX IMVI melanoma, 1.39 µM; in the assay with OVCAR-4 ovarian, 7.71 µM. The TGI in the assay on HOP-92 NSCLC is 28.6 µM; in the assay with CAKI-1 renal, over 28.4 µM; in the assay with SF-539 CNS it was 4.69 µM; in the assay with UO-31 renal, over 42.6 µM; with OVCAR-8 ovarian, over 60.5 µM; in the assay with NCI-H226 lung it was 41 µM. The TGI in the assay with SF-268 CNS is 30 µM; in the assay with HCT-116 colon it was over 58.9 µM; in the assay on LOX IMVI melanoma it was over 36.2 µM; in the assay on OVCAR-4 ovarian it was 52.2 µM.
Consider `COc1ccc2c(C)cc(N/N=C/c3ccc(OC)c4ccccc34)nc2c1`, for which the TGI in the assay on HOP-92 NSCLC was found to be 25.4 µM; with CAKI-1 renal, 26.9 µM; in the assay with SF-539 CNS, 30.6 µM; in the assay on UO-31 renal, 25.6 µM; in the assay with OVCAR-8 ovarian, 39.6 µM; in the assay on NCI-H226 lung, 29.6 µM. Further, the TGI in the assay with SF-268 CNS is 32.6 µM; in the assay with HCT-116 colon, 18.1 µM; with LOX IMVI melanoma, 12.3 µM; with OVCAR-4 ovarian, 45.1 µM.
For the compound `CN(C)CC(C)(C)C(=O)/C=C/c1ccc(/C=C/C(=O)C(C)(C)CN(C)C)cc1`, the TGI with HOP-92 NSCLC was 2.22 µM; in the assay with CAKI-1 renal it was 2.9 µM; in the assay on SF-539 CNS, 3.81 µM; with UO-31 renal it was 3.49 µM; in the assay on OVCAR-8 ovarian, 6.71 µM; in the assay with NCI-H226 lung, 4.93 µM. The TGI came out at 2.86 µM in the assay with SF-268 CNS, 2.55 µM in the assay on HCT-116 colon, 1.69 µM in the assay with LOX IMVI melanoma and 2.29 µM in the assay with OVCAR-4 ovarian.
`CCN(Cc1cccc(F)c1)c1ccc(CO)c(Cl)c1`: the GI50 with HOP-92 NSCLC was 1.86 µM; in the assay with CAKI-1 renal, 0.907 µM; in the assay with SF-539 CNS it was 23.8 µM; in the assay on UO-31 renal it was 5.09 µM; in the assay with OVCAR-8 ovarian it was 17.3 µM; in the assay on NCI-H226 lung it was 0.0467 µM. For the same compound, the GI50 was 29.9 µM in the assay with SF-268 CNS, 0.0674 µM in the assay on HCT-116 colon, 14.1 µM in the assay on LOX IMVI melanoma and 0.318 µM in the assay with OVCAR-4 ovarian. Also, the TGI with HOP-92 NSCLC was 20.8 µM; with CAKI-1 renal it was over 36.3 µM; in the assay with SF-539 CNS it was 63.5 µM; with UO-31 renal it was 58.7 µM; in the assay with OVCAR-8 ovarian, over 60.9 µM; in the assay with NCI-H226 lung, 0.18 µM. In addition, the TGI with SF-268 CNS is over 82.8 µM; in the assay on HCT-116 colon it was 5.85 µM; in the assay on LOX IMVI melanoma it was 28.8 µM; with OVCAR-4 ovarian, 15.1 µM.
On to `CCOc1ccc2nc(SCc3nc4n(n3)S(=O)(=O)c3ccccc3N4C)sc2c1`, for which the GI50 in the assay with HOP-92 NSCLC is 20.7 µM; in the assay on CAKI-1 renal, over 100 µM; in the assay on SF-539 CNS it was 53.8 µM; with UO-31 renal, over 100 µM; in the assay on OVCAR-8 ovarian it was 73 µM; with NCI-H226 lung, over 100 µM. In addition, the GI50 in the assay on SF-268 CNS is 57.6 µM; in the assay on HCT-116 colon, 55.8 µM; in the assay with LOX IMVI melanoma, over 100 µM; in the assay with OVCAR-4 ovarian it was over 100 µM. The TGI in the assay with HOP-92 NSCLC was 58.5 µM; in the assay with CAKI-1 renal, over 100 µM; in the assay on SF-539 CNS, over 100 µM; in the assay on UO-31 renal, over 100 µM; with OVCAR-8 ovarian it was over 100 µM; in the assay with NCI-H226 lung, over 100 µM. Moreover, the TGI in the assay on SF-268 CNS, in the assay on HCT-116 colon, in the assay with LOX IMVI melanoma and with OVCAR-4 ovarian was over 100 µM each time.
